The results in this text go back to article PMC11277476, “Synthesis and Biological Evaluation of Novel 2-Aroyl Benzofuran-Based Hydroxamic Acids as Antimicrotubule Agents” (International Journal of Molecular Sciences, 2024).

For one series, the system named is A549 cells. In words: In vitro growth inhibition (resazurin, 72 h), A549. Type of series: cell-based. Conditions: Homo sapiens, mean ± SE. On the technique in general: The colour change of resazurin is a common sign of viable cells or microbes.
The next series concerns MDA-MB-231 cells. In words: In vitro growth inhibition (resazurin, 72 h), MDA-MB-231. Type of series: cell-based. The note with it: Homo sapiens, mean ± SE.
Another series addresses T1, human recombinant HDAC6 (Homo sapiens, UniProt Q9UBN7).
T1 construct: purchased BPS Bioscience 50056
T1 sequence (Q9UBN7 1-1215): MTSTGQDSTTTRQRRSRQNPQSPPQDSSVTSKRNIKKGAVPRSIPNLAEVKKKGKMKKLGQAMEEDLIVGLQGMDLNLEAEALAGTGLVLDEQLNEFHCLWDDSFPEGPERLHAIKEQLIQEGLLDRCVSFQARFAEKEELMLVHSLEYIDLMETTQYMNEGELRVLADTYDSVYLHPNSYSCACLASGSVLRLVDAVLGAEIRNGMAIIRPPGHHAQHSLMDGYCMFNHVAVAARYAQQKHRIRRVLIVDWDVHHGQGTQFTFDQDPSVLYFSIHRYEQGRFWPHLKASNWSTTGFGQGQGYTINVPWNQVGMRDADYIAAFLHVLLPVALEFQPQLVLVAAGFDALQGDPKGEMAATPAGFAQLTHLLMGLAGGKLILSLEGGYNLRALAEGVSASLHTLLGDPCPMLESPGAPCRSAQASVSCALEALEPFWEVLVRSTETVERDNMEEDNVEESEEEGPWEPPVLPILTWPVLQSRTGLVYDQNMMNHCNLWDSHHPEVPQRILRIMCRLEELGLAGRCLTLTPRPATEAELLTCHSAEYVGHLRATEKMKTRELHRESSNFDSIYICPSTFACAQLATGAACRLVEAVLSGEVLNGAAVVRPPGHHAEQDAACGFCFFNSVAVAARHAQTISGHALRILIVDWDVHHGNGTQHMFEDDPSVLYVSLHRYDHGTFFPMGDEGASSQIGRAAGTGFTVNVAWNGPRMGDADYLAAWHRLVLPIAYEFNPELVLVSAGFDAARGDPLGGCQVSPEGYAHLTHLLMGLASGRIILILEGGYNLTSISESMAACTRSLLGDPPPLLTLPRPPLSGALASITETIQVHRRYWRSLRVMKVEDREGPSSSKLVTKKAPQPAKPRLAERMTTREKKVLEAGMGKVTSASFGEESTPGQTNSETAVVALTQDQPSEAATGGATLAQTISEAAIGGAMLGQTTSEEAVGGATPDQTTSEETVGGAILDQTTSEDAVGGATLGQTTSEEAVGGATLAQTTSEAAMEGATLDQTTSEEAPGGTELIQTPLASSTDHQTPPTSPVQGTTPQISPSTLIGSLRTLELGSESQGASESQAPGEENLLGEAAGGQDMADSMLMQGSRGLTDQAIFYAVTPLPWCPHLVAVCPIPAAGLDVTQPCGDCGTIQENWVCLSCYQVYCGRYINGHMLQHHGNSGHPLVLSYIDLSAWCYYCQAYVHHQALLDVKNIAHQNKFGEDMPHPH
In words: HDAC isoform inhibition, fluorogenic substrate, HDAC6. The series is classed as biochemical. Conditions: mean ± SE, read-out: IC50 (µM) hHDAC6. The protocol: (§1) Further experiments were also carried out to evaluate the inhibitory activities of test compounds on selected HDAC isoforms. […] Following an incubation of 15 min at RT, fluorescence was measured in an EnSight multimodal plate reader (PerkinElmer, Boston, MA, USA) with an excitation wavelength of 360 nm and an emission wavelength of 450 nm.

For the next series, the system named is bovine brain tubulin. Description: Inhibition of tubulin polymerization (turbidimetric). Type of series: biochemical. Conditions: tubulin at 10 μM; 20 min incubation at 30 °C; read-out: Tubulin Assembly IC50 ± SD. As to the method: (§2) Bovine brain tubulin was purified as described previously. To evaluate the effects of the compounds on tubulin assembly in vitro [77], varying concentrations were preincubated with 10 μM tubulin in 0.8 M monosodium glutamate (pH 6.6) at 30 °C, and the reaction mixtures were then cooled to 0 °C. After addition of GTP, the mixtures were transferred to 0 °C cuvettes in Beckman Coulter (Brea, CA, USA) DU-7400/DU-7500 recording spectrophotometers equipped with electronic temperature controllers and were warmed to 30 °C, and the assembly of tubulin was observed turbidimetrically. […] Inhibition of colchicine binding to tubulin was measured as described before, except that the reaction mixtures contained 0.5 μM tubulin and 5 μM each of [^3H]colchicine and test compound. Only one DEAE-cellulose filter was used per sample, and filtration was via gravity.

In the next series the target is T2, human recombinant HDAC1 (Homo sapiens, UniProt Q13547).
T2 construct: purchased BPS Bioscience 50051
Description: HDAC isoform inhibition, fluorogenic substrate, HDAC1. The series is classed as biochemical. The note with it: mean ± SE, read-out: IC50 (µM) hHDAC1. As to the method: as §1

The subject of series [1] is tubulin (colchicine site). In words: Inhibition of [3H]colchicine binding to tubulin. More on the design: species or system bovine. The note with it: tubulin 0.5 µM, [3H]colchicine 5 µM, tested compound 5 µM. The protocol:
as §2

A further series concerns MCF-7 cells. In words: In vitro growth inhibition (resazurin, 72 h), MCF-7. Type of series: cell-based. Conditions: Homo sapiens, MCF7, mean ± SE.
A further series addresses T3, human recombinant HDAC8 (Homo sapiens, UniProt Q9BY41).
T3 construct: purchased BPS Bioscience 50008
T3 sequence (Q9BY41 1-377): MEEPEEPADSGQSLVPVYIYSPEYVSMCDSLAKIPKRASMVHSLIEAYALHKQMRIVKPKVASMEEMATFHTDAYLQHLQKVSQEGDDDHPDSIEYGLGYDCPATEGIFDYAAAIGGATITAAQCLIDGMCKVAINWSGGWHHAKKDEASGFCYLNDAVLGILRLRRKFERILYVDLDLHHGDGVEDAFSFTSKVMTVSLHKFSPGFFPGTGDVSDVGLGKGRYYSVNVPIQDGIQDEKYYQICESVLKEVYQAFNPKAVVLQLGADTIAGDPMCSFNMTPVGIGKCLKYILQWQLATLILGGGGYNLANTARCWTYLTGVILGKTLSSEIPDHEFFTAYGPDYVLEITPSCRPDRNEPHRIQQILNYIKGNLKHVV
Description: HDAC isoform inhibition, fluorogenic substrate, HDAC8. The series is classed as biochemical. The note with it: mean ± SE, read-out: IC50 (µM) hHDAC8. The protocol:
as §1

The next series concerns HeLa cells. Description: In vitro growth inhibition (resazurin, 72 h), HeLa. The note with it: Homo sapiens, concentration inhibiting tumor cell proliferation by 50%, mean ± SE. The series is classed as cell-based.
Series [2] deals with panel of five human cancer cell lines (HeLa, MDA-MB-231, A549, HT-29, MCF-7). In words: In vitro growth inhibition, range over the panel of five cancer cell lines.
Description: All the cell lines were purchased from the American Type Culture Collection (ATCC, Manassas, VA, USA). Drug stock solutions were prepared for each compound by dissolving them in DMSO at 10 mM.
Cancer cells were seeded in tissue treated, flat bottom, 384-well plates (Corning, Corning, NY, USA) according to their optimal density, in 27 μL of complete medium per well, using a Microlab STAR 96-CORE liquid handling system (Hamilton Bonaduz, Bonaduz, Switzerland) as described previously [75]. Each compound was tested in a 6-points 2-fold dose–response curve, and each dose was tested in duplicate within each plate, in three independent experiments. The final concentration of DMSO in the wells never exceeded 0.1%, which was the maximum concentration.
Only plates with acceptable Z-prime quality metrics (Z′ > 0.6) were further analyzed for the drug screening. Raw data were normalized according to the following equation: cell viability (%) = (x − POS)/(NEG − POS) × 100, where x is the relative fluorescence units (RFU) collected from each single well, NEG is the mean of intraplate negative controls (DMSO, corresponding to 100% cell viability), and POS is the mean of intraplate positive controls (Bortezomib 1 μΜ, equal to 0% cell viability).
The target in the next series is T4, human recombinant HDAC10 (Homo sapiens, UniProt Q969S8).
T4 construct: purchased BPS Bioscience 50060
T4 sequence (Q969S8 1-669): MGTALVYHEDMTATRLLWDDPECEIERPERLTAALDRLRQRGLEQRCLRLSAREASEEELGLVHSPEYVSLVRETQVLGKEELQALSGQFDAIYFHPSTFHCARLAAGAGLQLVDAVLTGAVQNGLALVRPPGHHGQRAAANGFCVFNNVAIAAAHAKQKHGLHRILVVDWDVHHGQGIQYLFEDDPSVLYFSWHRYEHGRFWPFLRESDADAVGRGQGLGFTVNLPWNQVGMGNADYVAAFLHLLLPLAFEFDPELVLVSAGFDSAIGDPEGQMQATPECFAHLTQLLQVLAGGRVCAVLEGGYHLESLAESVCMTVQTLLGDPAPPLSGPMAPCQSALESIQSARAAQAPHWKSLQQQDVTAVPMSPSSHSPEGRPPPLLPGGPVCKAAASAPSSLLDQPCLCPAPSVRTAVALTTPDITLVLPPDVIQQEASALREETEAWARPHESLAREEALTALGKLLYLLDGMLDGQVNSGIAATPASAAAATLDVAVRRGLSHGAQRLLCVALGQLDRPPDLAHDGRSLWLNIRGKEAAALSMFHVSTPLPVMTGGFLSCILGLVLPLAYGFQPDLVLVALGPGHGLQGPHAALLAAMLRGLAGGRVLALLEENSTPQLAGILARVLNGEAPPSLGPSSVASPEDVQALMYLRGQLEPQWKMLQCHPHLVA
In words: HDAC isoform inhibition, fluorogenic substrate, HDAC10. The series is classed as biochemical. The note with it: mean ± SE, read-out: IC50 (µM) hHDAC10. As to the method: as §1

The next series deals with HT-29 cells. In words: In vitro growth inhibition (resazurin, 72 h), HT-29. Type of series: cell-based. Conditions: Homo sapiens, mean ± SE.

T2 sequence (Q13547 whole entry): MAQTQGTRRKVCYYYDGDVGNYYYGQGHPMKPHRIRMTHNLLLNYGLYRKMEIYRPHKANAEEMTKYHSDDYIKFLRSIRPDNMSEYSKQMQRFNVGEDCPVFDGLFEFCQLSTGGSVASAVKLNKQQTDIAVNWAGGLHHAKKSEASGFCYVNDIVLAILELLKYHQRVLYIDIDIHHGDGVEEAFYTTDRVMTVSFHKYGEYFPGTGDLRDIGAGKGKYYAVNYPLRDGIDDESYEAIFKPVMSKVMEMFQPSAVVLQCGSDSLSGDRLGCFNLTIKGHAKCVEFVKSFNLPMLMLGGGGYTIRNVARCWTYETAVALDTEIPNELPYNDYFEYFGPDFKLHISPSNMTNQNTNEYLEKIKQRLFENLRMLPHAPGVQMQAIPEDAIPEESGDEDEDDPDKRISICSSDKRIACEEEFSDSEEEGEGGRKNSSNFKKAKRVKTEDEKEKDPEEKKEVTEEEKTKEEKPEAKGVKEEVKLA

Take `COc1cc(OC)cc(C(=O)c2oc3cc(OC)c(/C=C/C(=O)NO)cc3c2C)c1` [Compound 6c, (E)-3-(2-(3,5-Dimethoxybenzoyl)-6-methoxy-3-methylbenzofuran-5-yl)-N-hydroxyacrylamide]: the melting point (usually the temperature of the solid-liquid transition) lay in the range of 170 to 172 °C. Moreover, the half-inhibitory concentration (IC50) (in general, the concentration that gives 50% inhibition) with A549 cells was found to be 43.9 ± 0.55 nM. The compound also displayed an IC50 in the series with MDA-MB-231 cells of 26.9 ± 1.74 nM. The half-inhibitory concentration (IC50) on human recombinant HDAC6 was found to be 12.5 ± 0.8 µM. For the same compound, in the series with bovine brain tubulin, the concentration for half-maximal inhibition (IC50) amounted to 420 ± 70 nM. The IC50 on human recombinant HDAC1 is greater than 30 µM. Also, the “Colchicine Binding % Inhibition ± SD” value in [1] came out at 81 ± 4%. In the series with MCF-7 cells, the IC50 is 19 ± 1 nM. Also, the IC50 on human recombinant HDAC8 is greater than 30 µM. This compound yielded an IC50 in the series with HeLa cells of 4 ± 0.01 nM. In [2] (read-out: antiproliferative GI50 values, range over the five tumor lines), the GI50 (usually the concentration that inhibits growth by half) was 4 to 44 nM. Also, the IC50 at human recombinant HDAC10 was greater than 30 µM. Besides, inhibition with HT-29 cells was half-maximal at 29 ± 0.01 nM (IC50).

`COc1cccc(C(=O)c2oc3cc(OC)c(/C=C/C(=O)NO)cc3c2C)c1` [Compound 6e, (E)-N-Hydroxy-3-(6-methoxy-2-(3-methoxybenzoyl)-3-methylbenzofuran-5-yl)acrylamide] yielded a melting point of 100 to 102 °C. In the series with A549 cells, this compound gave an IC50 of 54.2 ± 2.03 nM. The compound further registered an IC50 with MDA-MB-231 cells of 44.7 ± 3.12 nM. Besides, the IC50 on human recombinant HDAC6 was 17.1 ± 1.2 µM. In the series on bovine brain tubulin, the IC50 was determined as 1100 ± 100 nM. At human recombinant HDAC1, the IC50 is 13.4 ± 0.9 µM. The “Colchicine Binding % Inhibition ± SD” value in [1] was 86 ± 1%. It took 33 ± 6 nM to reach half-maximal inhibition with MCF-7 cells (IC50). Moreover, at human recombinant HDAC8, the IC50 is greater than 30 µM. In the series with HeLa cells, this compound had an IC50 of 6 ± 0.05 nM. For the same compound, the IC50 on human recombinant HDAC10 is greater than 30 µM. Moreover, the IC50 in the series on HT-29 cells came to 7.9 ± 0.02 nM.

In turn, `COc1cc2oc(C(=O)c3cc(OC)c(OC)c(OC)c3)c(C)c2cc1C#CC(=O)NO` [Compound 11a, N-Hydroxy-3-[6-methoxy-3-methyl-2-(3,4,5-trimethoxybenzoyl)-1-benzofuran-5-yl] prop-2-ynamide] yielded a melting point of 268 to 270 °C. The same compound returned an IC50 in the series on A549 cells of 18.7 ± 0.72 nM. Moreover, the IC50 with MDA-MB-231 cells is 16.1 ± 0.01 nM. Besides, at human recombinant HDAC6, the IC50 is greater than 30 µM. Besides, the IC50 in the series on bovine brain tubulin worked out at 490 ± 100 nM. The IC50 at human recombinant HDAC1 was 14.1 ± 1 µM. For the same compound, the “Colchicine Binding % Inhibition ± SD” value in series [1] amounted to 69 ± 0.1%. Also, the IC50 with MCF-7 cells was 9.5 ± 0.7 nM. Moreover, at human recombinant HDAC8, the IC50 is greater than 30 µM. Also, half-maximal inhibition with HeLa cells (IC50) was put at 0.4 ± 0.04 nM. Also, the IC50 in series [2] (read-out: IC50 values, range over the cancer cell line panel) is 0.4 to 19 nM. Also, the IC50 at human recombinant HDAC10 was greater than 30 µM. Also, the IC50 in the series on HT-29 cells is 6.6 ± 0.96 nM.
